Here are results for 15 molecules from patent publication US8383584B2, “HCV inhibiting macrocyclic phenylcarbamates” (Medivir AB, priority 2007, dated 2013).

T1 sequence (P27958 1027-1657, one chain of several): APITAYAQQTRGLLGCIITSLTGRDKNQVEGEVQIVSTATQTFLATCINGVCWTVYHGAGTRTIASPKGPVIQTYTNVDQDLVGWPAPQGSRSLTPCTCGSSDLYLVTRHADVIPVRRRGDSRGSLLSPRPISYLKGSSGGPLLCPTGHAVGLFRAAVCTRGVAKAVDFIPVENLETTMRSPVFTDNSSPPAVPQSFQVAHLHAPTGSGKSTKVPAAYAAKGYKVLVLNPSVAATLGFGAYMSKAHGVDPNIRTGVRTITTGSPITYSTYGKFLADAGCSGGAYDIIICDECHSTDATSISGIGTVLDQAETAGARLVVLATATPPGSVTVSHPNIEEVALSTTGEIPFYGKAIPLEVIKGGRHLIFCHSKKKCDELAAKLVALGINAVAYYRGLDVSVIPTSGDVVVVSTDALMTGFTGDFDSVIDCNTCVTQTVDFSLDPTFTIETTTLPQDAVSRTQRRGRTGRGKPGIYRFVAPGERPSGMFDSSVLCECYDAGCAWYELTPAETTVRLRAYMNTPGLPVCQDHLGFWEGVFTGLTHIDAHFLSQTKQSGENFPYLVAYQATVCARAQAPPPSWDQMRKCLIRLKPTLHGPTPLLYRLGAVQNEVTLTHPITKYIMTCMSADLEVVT

The first assay addresses T1, HCV NS3/4A protease complexes (full-length hepatitis C NS3 protease enzyme) (Hepatitis C virus genotype 1a, UniProt P27958).
T1 construct: full-length hepatitis C NS3 protease enzyme
The assay is described as follows: Inhibition assay (enzyme assay), depsipeptide substrate hydrolysis with NS4A cofactor. The assay is classed as biochemical. The settings on record: 1 nM enzyme, 25 μM NS4A cofactor, 0.5 μM substrate, 30° C. As for the experimental part:
The aim of this in vitro assay was to measure the inhibition of HCV NS3/4A protease complexes by the compounds of the present invention. This assay provides an indication of how effective compounds of the present invention would be in inhibiting HCV NS3/4A proteolytic activity.
The inhibition of full-length hepatitis C NS3 protease enzyme was measured essentially as described in Poliakov, 2002 Prot Expression & Purification 25 363 371. Briefly, the hydrolysis of a depsipeptide substrate, Ac-DED(Edans)EEAbuψ[COO]ASK(Dabcyl)-NH2 (AnaSpec, San José, USA), was measured spectrofluorometrically in the presence of a peptide cofactor, KKGSVVIVGRIVLSGK (Åke Engström, Department of Medical Biochemistry and Microbiology, Uppsala University, Sweden). [Landro, 1997 #Biochem 36 9340-9348]. The enzyme (1 nM) was incubated in 50 mM HEPES, pH 7.5, 10 mM DTT, 40% glycerol, 0.1% n-octyl-D-glucoside, with 25 μM NS4A cofactor and inhibitor at 30° C. for 10 min, whereupon the reaction was initiated by addition of 0.5 μM substrate. Inhibitors were dissolved in DMSO, sonicated for 30 sec. and vortexed. The solutions were stored at −20° C. between measurements.
The final concentration of DMSO in the assay sample was adjusted to 3.3%. The rate of hydrolysis was corrected for inner filter effects according to published procedures [Liu, Analytical Biochemistry, 1999, vol. 267, pp. 331-335]. Ki values were estimated by non-linear regression analysis (GraFit, Erithacus Software, Staines, MX, UK), using a model for competitive inhibition and a fixed value for Km (0.15 μM). A minimum of two replicates was performed for all measurements.
As for `CN1CCCCC=CC2CC2(C(=O)NS(=O)(=O)C2CC2)NC(=O)C2CC(OC(=O)Nc3ccccc3C#N)CC2C1=O` (stereo not drawn) [Example 1, (2-Cyanophenyl)-carbamic acid 4-cyclopropanesulfonylaminocarbonyl-13-methyl-2,14-dioxo-3,13-diaza-tricyclo[13.3.0.0*4,6*]octadec-7-en-17-yl ester], the Ki – broadly, a measure of affinity in units of concentration, obtained from inhibition or displacement – fell in the range of 30 to 100 nM.
In turn, `CN1CCCC/C=C\[C@@H]2C[C@@]2(C(=O)NS(=O)(=O)C2CC2)NC(=O)[C@@H]2C[C@@H](OC(=O)Nc3ccccc3Oc3ccccc3)C[C@H]2C1=O` [Example 2, (2-Phenoxyphenyl)-carbamic acid 4-cyclopropanesulfonylaminocarbonyl-13-methyl-2,14-dioxo-3,13-diaza-tricyclo[13.3.0.0*4,6*]octadec-7-en-17-yl ester] showed a Ki of 0.1 to 29.9 nM.
As to `COc1ccccc1NC(=O)O[C@@H]1C[C@H]2C(=O)N[C@]3(C(=O)NS(=O)(=O)C4CC4)C[C@H]3/C=C\CCCCN(C)C(=O)[C@@H]2C1` [Example 3, (2-Methoxy-phenyl)-carbamic acid 4-cyclopropanesulfonylaminocarbonyl-13-methyl-2,14-dioxo-3,13-diaza-tricyclo[13.3.0.0*4,6*]octadec-7-en-17-yl ester], the inhibitory constant (Ki) is 0.1 to 29.9 nM.

The next assay deals with HCV replicons (Huh-7 luc/neo cells, NS3-NS5B regions of HCV type 1b). As to the kind of experiment: Replicon assay (Huh-Luc luciferase, HCV RNA replication). The settings on record: Hepatitis C virus, Huh-7, 72 h, read-out: EC50 Replicon assay. The assay is classed as cell-based. From the text: The compounds of formula (I) were examined for activity in the inhibition of HCV RNA replication in a cellular assay. […] The cellular assay was based on a bicistronic expression construct, as described by Lohmann et al. (1999) Science vol. 285 pp. 110-113 with modifications described by Krieger et al. (2001) Journal of Virology 75: 4614-4624, in a multi-target screening strategy. In essence, the method was as follows.
The assay utilized the stably transfected cell line Huh-7 luc/neo (hereafter referred to as Huh-Luc). This cell line harbors an RNA encoding a bicistronic expression construct comprising the wild type NS3-NS5B regions of HCV type 1b translated from an Internal Ribosome Entry Site (IRES) from encephalomyocarditis virus (EMCV), preceded by a reporter portion (FfL-luciferase), and a selectable marker portion (neo^R, neomycine phosphotransferase). The construct is bordered by 5′ and 3′ NTRs (non-translated regions) from HCV type 1b. Continued culture of the replicon cells in the presence of G418 (neo^R) is dependent on the replication of the HCV RNA. The stably transfected replicon cells that express HCV RNA, which replicates autonomously and to high levels, encoding inter alia luciferase, are used for screening the antiviral compounds.
The replicon cells were plated in 384 well plates in the presence of the test and control compounds which were added in various concentrations. Following an incubation of three days, HCV replication was measured by assaying luciferase activity (using standard luciferase assay substrates and reagents and a Perkin Elmer ViewLux™ ultraHTS microplate imager). Replicon cells in the control cultures have high luciferase expression in the absence of any inhibitor. The inhibitory activity of the compound on luciferase activity was monitored on the Huh-Luc cells, enabling a dose-response curve for each test compound. EC50 values were then calculated, which value represents the amount of the compound required to decrease by 50% the level of detected luciferase activity, or more specifically, the ability of the genetically linked HCV replicon RNA to replicate.
For orientation: Replicon systems follow genome replication, usually without infectious particles.
As to `CN1CCCC/C=C\[C@@H]2C[C@@]2(C(=O)NS(=O)(=O)C2(C)CC2)NC(=O)[C@@H]2C[C@@H](OC(=O)Nc3cccc(N(C)C)c3)C[C@H]2C1=O` [Example 9, (3-Dimethylaminophenyl)-carbamic acid 13-methyl-4-(1-methyl-cyclopropane-sulfonylaminocarbonyl)-2,14-dioxo-3,13-diaza-tricyclo[13.3.0.0*4,6*]octadec-7-en-17-yl ester], the 50% effective concentration (EC50) (in general, the midpoint of the concentration-response curve) was 1000 to 10000 nM.

The assay is the same for the next values; noted with them: Hepatitis C virus, Huh-7, 72 h; Huh-Luc cells, three days incubation, luciferase activity; read-out: EC50 Replicon assay.
On to `CN1CCCCC=CC2CC2(C(=O)NS(=O)(=O)C2CC2)NC(=O)C2CC(OC(=O)Nc3ccccc3C#N)CC2C1=O` (stereo not drawn) [Example 1, (2-Cyanophenyl)-carbamic acid 4-cyclopropanesulfonylaminocarbonyl-13-methyl-2,14-dioxo-3,13-diaza-tricyclo[13.3.0.0*4,6*]octadec-7-en-17-yl ester], for which the EC50 was over 10000 nM.
Take `CN1CCCC/C=C\[C@@H]2C[C@@]2(C(=O)NS(=O)(=O)C2CC2)NC(=O)[C@@H]2C[C@@H](OC(=O)Nc3ccccc3Oc3ccccc3)C[C@H]2C1=O` [Example 2, (2-Phenoxyphenyl)-carbamic acid 4-cyclopropanesulfonylaminocarbonyl-13-methyl-2,14-dioxo-3,13-diaza-tricyclo[13.3.0.0*4,6*]octadec-7-en-17-yl ester]: the EC50 fell in the range of 1000 to 10000 nM.
On to `COc1ccccc1NC(=O)O[C@@H]1C[C@H]2C(=O)N[C@]3(C(=O)NS(=O)(=O)C4CC4)C[C@H]3/C=C\CCCCN(C)C(=O)[C@@H]2C1` [Example 3, (2-Methoxy-phenyl)-carbamic acid 4-cyclopropanesulfonylaminocarbonyl-13-methyl-2,14-dioxo-3,13-diaza-tricyclo[13.3.0.0*4,6*]octadec-7-en-17-yl ester], for which the concentration giving a half-maximal response (EC50) was in the range of 1000 to 10000 nM.
As for `COC(=O)c1cccc(NC(=O)O[C@@H]2C[C@H]3C(=O)N[C@]4(C(=O)NS(=O)(=O)C5CC5)C[C@H]4/C=C\CCCCN(C)C(=O)[C@@H]3C2)c1` [Example 5, 3-(4-Cyclopropanesulfonylaminocarbonyl-13-methyl-2,14-dioxo-3,13-diaza-tricyclo-[13.3.0.0*4,6*]octadec-7-en-17-yloxycarbonylamino)-benzoic acid methyl ester], the EC50 is 1000 to 10000 nM.
Same read-out and setting: the result for `COc1ccc(C#N)cc1NC(=O)OC1CC2C(=O)NC3(C(=O)NS(=O)(=O)C4(C)CC4)CC3C=CCCCCN(C)C(=O)C2C1` (stereo not drawn) [Example 6c, (5-Cyano-2-methoxy-phenyl)-carbamic acid 13-methyl-4-(1-methyl-cyclopropanesulfonylaminocarbonyl)-2,14-dioxo-3,13-diaza-tricyclo[13.3.0.0*4,6*]-octadec-7-en-17-yl ester] reads over 10000 nM; that for `COc1cccc(NC(=O)O[C@@H]2C[C@H]3C(=O)N[C@]4(C(=O)NS(=O)(=O)C5CC5)C[C@H]4/C=C\CCCCN(C)C(=O)[C@@H]3C2)c1` [Example 10, (3-Methoxyphenyl)-carbamic acid 4-cyclopropanesulfonylaminocarbonyl-13-methyl-2,14-dioxo-3,13-diaza-tricyclo[13.3.0.0*4,6*]octadec-7-en-17-yl ester], 1000 to 10000 nM; that for `CN1CCCC/C=C\[C@@H]2C[C@@]2(C(=O)NS(=O)(=O)C2CC2)NC(=O)[C@@H]2C[C@@H](OC(=O)Nc3cccc(Oc4ccccc4)c3)C[C@H]2C1=O` [Example 11, (3-Phenoxy-phenyl)-carbamic acid 4-cyclopropanesulfonylaminocarbonyl-13-methyl-2,14-dioxo-3,13-diaza-tricyclo[13.3.0.0*4,6*]octadec-7-en-17-yl ester], 1000 to 10000 nM.
As for `CN1CCCC/C=C\[C@@H]2C[C@@]2(C(=O)NS(=O)(=O)C2CC2)NC(=O)[C@@H]2C[C@@H](OC(=O)Nc3cccc(C#N)c3)C[C@H]2C1=O` [Example 12, (3-Cyano-phenyl)-carbamic acid 4-cyclopropanesulfonylaminocarbonyl-13-methyl-2,14-dioxo-3,13-diaza-tricyclo[13.3.0.0*4,6*]octadec-7-en-17-yl ester], the EC50 is 200 to 990 nM.
As to `CN1CCCC/C=C\[C@@H]2C[C@@]2(C(=O)NS(=O)(=O)C2(C)CC2)NC(=O)[C@@H]2C[C@@H](OC(=O)Nc3cccc(C#N)c3)C[C@H]2C1=O` [Example 13, (3-Cyanophenyl)-carbamic acid 13-methyl-4-(1-methylcyclopropanesulfonylamino-carbonyl)-2,14-dioxo-3,13-diaza-tricyclo[13.3.0.0*4,6*]octadec-7-en-17-yl ester], the EC50 is 0.5 to 199 nM.
For the molecule `COc1cccc(NC(=O)O[C@@H]2C[C@H]3C(=O)N[C@]4(C(=O)NS(=O)(=O)C5(C)CC5)C[C@H]4/C=C\CCCCN(C)C(=O)[C@@H]3C2)c1` [Example 14, (3-Methoxy-phenyl)-carbamic acid 13-methyl-4-(1-methyl-cyclopropanesulfonyl-aminocarbonyl)-2,14-dioxo-3,13-diaza-tricyclo[13.3.0.0*4,6*]octadec-7-en-17-yl ester], the EC50 lay in the range of 200 to 990 nM.
In the case of `Cc1cccc(NC(=O)O[C@@H]2C[C@H]3C(=O)N[C@]4(C(=O)NS(=O)(=O)C5CC5)C[C@H]4/C=C\CCCCN(C)C(=O)[C@@H]3C2)c1` [Example 15, m-Tolyl-carbamic acid 4-cyclopropanesulfonylaminocarbonyl-13-methyl-2,14-dioxo-3,13-diaza-tricyclo[13.3.0.0*4,6*]octadec-7-en-17-yl ester], the 50% effective concentration (EC50) is over 10000 nM.
In the case of `Cc1ccc(F)c(NC(=O)O[C@@H]2C[C@H]3C(=O)N[C@]4(C(=O)NS(=O)(=O)C5CC5)C[C@H]4/C=C\CCCCN(C)C(=O)[C@@H]3C2)c1` [Example 16, (2-Fluoro-5-methyl-phenyl)-carbamic acid 4-cyclopropanesulfonylaminocarbonyl-13-methyl-2,14-dioxo-3,13-diaza-tricyclo[13.3.0.0*4,6*]octadec-7-en-17-yl ester], the EC50 lay within 1000 to 10000 nM.
For `Cc1nc(-c2cccc(NC(=O)O[C@@H]3C[C@H]4C(=O)N[C@]5(C(=O)NS(=O)(=O)C6CC6)C[C@H]5/C=C\CCCCN(C)C(=O)[C@@H]4C3)c2)cs1` [Example 17, [3-(2-Methyl-thiazol-4-yl)-phenyl]-carbamic acid 4-cyclopropanesulfonylamino-carbonyl-13-methyl-2,14-dioxo-3,13-diaza-tricyclo[13.3.0.0*4,6*]octadec-7-en-17-yl ester], the 50% effective concentration (EC50) was 1000 to 10000 nM.
As for `Cc1ccc(C#N)c(NC(=O)O[C@@H]2C[C@H]3C(=O)N[C@]4(C(=O)NS(=O)(=O)C5CC5)C[C@H]4/C=C\CCCCN(C)C(=O)[C@@H]3C2)c1` [Example 18, (2-Cyano-5-methyl-phenyl)-carbamic acid 4-cyclopropanesulfonylaminocarbonyl-13-methyl-2,14-dioxo-3,13-diaza-tricyclo[13.3.0.0*4,6*]octadec-7-en-17-yl ester], the concentration giving a half-maximal response (EC50) lay in the range of 200 to 990 nM.
